Experiment [1] has as its target T1, α3L158Cβ2 nAChR (Rattus norvegicus, UniProt P04757+P12390, L185C). Briefly: Two-electrode voltage-clamp concentration-response in Xenopus oocytes. It is filed as cell-based.
The target in the next experiment is α3A179Cβ2 nAChR (Rattus norvegicus, UniProt P04757+P12390, A179C/A206C). The experiment is described as above. It is filed as cell-based.
The target in experiment [2] is T2, α3G181Cβ2 nAChR (Rattus norvegicus, UniProt P04757+P12390, G208C). Described as above. It is filed as cell-based.
T2 sequence (P04757 26-499 G208C): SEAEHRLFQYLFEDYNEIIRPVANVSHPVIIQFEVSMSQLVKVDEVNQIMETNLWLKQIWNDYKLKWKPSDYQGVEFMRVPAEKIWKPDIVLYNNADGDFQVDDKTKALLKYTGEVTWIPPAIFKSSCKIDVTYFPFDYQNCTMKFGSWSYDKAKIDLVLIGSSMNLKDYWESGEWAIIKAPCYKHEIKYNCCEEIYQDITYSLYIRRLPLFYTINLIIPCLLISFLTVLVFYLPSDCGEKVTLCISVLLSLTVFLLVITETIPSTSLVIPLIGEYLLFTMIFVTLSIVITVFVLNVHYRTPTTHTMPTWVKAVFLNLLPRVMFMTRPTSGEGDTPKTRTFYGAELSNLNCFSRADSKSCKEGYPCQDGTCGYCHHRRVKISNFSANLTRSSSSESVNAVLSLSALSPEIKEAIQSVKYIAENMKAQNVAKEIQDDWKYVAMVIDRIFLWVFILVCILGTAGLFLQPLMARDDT
T2 sequence (P12390 25-500): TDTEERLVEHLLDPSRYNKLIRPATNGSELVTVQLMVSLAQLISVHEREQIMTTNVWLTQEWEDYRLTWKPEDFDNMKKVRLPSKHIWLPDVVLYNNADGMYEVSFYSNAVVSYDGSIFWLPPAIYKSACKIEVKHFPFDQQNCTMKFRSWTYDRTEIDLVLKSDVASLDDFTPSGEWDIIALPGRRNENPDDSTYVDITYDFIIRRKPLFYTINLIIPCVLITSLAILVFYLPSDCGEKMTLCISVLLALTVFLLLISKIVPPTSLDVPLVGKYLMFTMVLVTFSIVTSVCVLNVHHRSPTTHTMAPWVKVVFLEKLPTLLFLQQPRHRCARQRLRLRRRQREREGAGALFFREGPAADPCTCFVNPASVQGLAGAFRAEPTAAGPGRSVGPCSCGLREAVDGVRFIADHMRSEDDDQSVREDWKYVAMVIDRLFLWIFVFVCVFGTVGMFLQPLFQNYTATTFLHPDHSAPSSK
Another experiment concerns the target α3K183Cβ2 nAChR (Rattus norvegicus, UniProt P04757+P12390, K210C). The description is as above. It is filed as cell-based.
Experiment [3] addresses T3, α3L158CA179Cβ2 nAChR (Rattus norvegicus, UniProt P04757+P12390, A206C/L185C). The description is as above. It is filed as cell-based. The settings on record: naïve oocytes.
For experiment [4], the target named is T4, α3L158CG181Cβ2 nAChR (Rattus norvegicus, UniProt P04757+P12390, G208C/L185C). The description is as above. It is filed as cell-based.
T4 sequence (P04757 26-499 L185C/G208C): as the sequence (P04757 26-499 G208C) above, with L160C counted along it
T4 sequence (P12390 25-500): as the sequence (P12390 25-500) above
Experiment [5] deals with T5, α3L158CK183Cβ2 nAChR (Rattus norvegicus, UniProt P04757+P12390, K210C/L185C). Described as above. It is filed as cell-based.
T5 sequence (P04757 26-499 L185C/K210C): as the sequence (P04757 26-499 G208C) above, with L160C, C183G, K185C counted along it
T5 sequence (P12390 25-500): as the sequence (P12390 25-500) above
A further experiment addresses wild type α3β2 nAChR (Rattus norvegicus, UniProt P04757+P12390). The settings on record: ref Cesa et al., 2012, cited from earlier work.
For experiment [6], the target named is T3, α3L158CA179Cβ2 nAChR. In words: Oxidation/reduction treatment. The settings on record: for ITCEP/Icontrol: 40 μM TCEP; for IDTT/Icontrol: 40 μM DTT. It is filed as cell-based.
The target in experiment [7] is T1, α3L158Cβ2 nAChR. Briefly: Oxidation/reduction treatment, evoked currents. It is filed as cell-based. Conditions: ACh + Mor currents.
The target in experiment [8] is T2, α3G181Cβ2 nAChR. In words: Oxidation/reduction treatment, evoked currents. Conditions: ACh + Mor currents. It is filed as cell-based.
The target in experiment [9] is T4, α3L158CG181Cβ2 nAChR. In words: Oxidation/reduction treatment. It is filed as cell-based. Conditions: for ACh/Mor-evoked current, % of the control: after H2O2 + ACh + Mor oxidation.
Experiment [10] concerns the target T5, α3L158CK183Cβ2 nAChR. Briefly: Oxidation/reduction treatment. The settings on record: for IDTT/Icontrol: DTT treatment; for decrease of ACh-evoked currents: 125 μM ACh challenge. It is filed as cell-based.
Experiment [11] has as its target T4, α3L158CG181Cβ2 nAChR. Briefly: MTS-dansyl probing of free sulfhydryls, evoked currents. It is filed as cell-based.
Experiment [12] has as its target T1, α3L158Cβ2 nAChR. In words: MTS-dansyl treatment, evoked currents. It is filed as cell-based. The settings on record: 5 μM ACh currents.
Experiment [13] deals with T2, α3G181Cβ2 nAChR. In words: MTS-dansyl treatment, evoked currents. It is filed as cell-based. Conditions: 100 μM ACh currents.
[14] abbreviates: ACh + 10 μM Mor, asymptote at saturating ACh, normalized to highest ACh alone.
The mark [15] stands for this setting: Mor alone, relative to internal ACh control.
Where [16] appears, read: ACh titration + 10 μM Mor, naïve oocytes.
[17] abbreviates: ACh alone, Hill fit, naïve oocytes.
Where [18] appears, read: DTT after treatment with H2O2 only.

Usually EC50 stands for the concentration needed to bring the measured effect to its halfway point. Read a high EC50 as weaker potency.

Sequence of α3K183Cβ2 nAChR (P04757 26-499 K210C): as the sequence (P04757 26-499 G208C) above, with C183G, K185C counted along it
Sequence of α3K183Cβ2 nAChR (P12390 25-500): as the sequence (P12390 25-500) above
Sequence of α3A179Cβ2 nAChR (P04757 26-499 A179C/A206C): as the sequence (P04757 26-499 G208C) above, with A154C, A181C, C183G counted along it
Sequence of α3A179Cβ2 nAChR (P12390 25-500, stated change not applied): as the sequence (P12390 25-500) above
T3 sequence (P04757 26-499 L185C/A206C): as the sequence (P04757 26-499 G208C) above, with L160C, A181C, C183G counted along it
T3 sequence (P12390 25-500, stated change not applied): as the sequence (P12390 25-500) above
T1 sequence (P04757 26-499 L185C): as the sequence (P04757 26-499 G208C) above, with L160C, C183G counted along it
T1 sequence (P12390 25-500): as the sequence (P12390 25-500) above
Sequence of wild type α3β2 nAChR (P04757 26-499): as the sequence (P04757 26-499 G208C) above, with C183G counted along it
Sequence of wild type α3β2 nAChR (P12390 25-500): as the sequence (P12390 25-500) above

With `Cc1ccsc1C=CC1=NCCCN1C.O=C(O)C(O)C(O)C(=O)O` [Mor, 1,4,5,6-tetrahydro-1-methyl-2-(2-[3-methyl-2-thienyl]ethenyl)pyrimidine, tartrate salt], the EC50 came to 12 ± 7 µM on α3L158Cβ2 nAChR [1], 41 ± 26 µM at α3G181Cβ2 nAChR [2] and 28 ± 10 µM on α3L158CG181Cβ2 nAChR [4]. Besides, the “Mor Modulation Response Emax” value on α3L158Cβ2 nAChR [1] (setting [14]) is 1.6 ± 0.1; at α3A179Cβ2 nAChR (setting [14]), 1.6 ± 0.1; on α3G181Cβ2 nAChR [2] (setting [14]), 2.3 ± 0.1; on α3K183Cβ2 nAChR (setting [14]) it was 0.97 ± 0.02. Also, the “Mor Modulation Response nH” value came to 1.47 ± 0.39 on α3L158Cβ2 nAChR [1] (ACh titration + 10 μM Mor); 1.79 ± 0.75 on α3A179Cβ2 nAChR (ACh titration + 10 μM Mor); 1.08 ± 0.12 on α3G181Cβ2 nAChR [2] (ACh titration + 10 μM Mor); 1.61 ± 0.22 on α3K183Cβ2 nAChR (ACh titration + 10 μM Mor); 1.70 ± 0.50 at α3L158CA179Cβ2 nAChR [3] (ACh titration + 10 μM Mor); 1.18 ± 0.25 at α3L158CG181Cβ2 nAChR [4] (setting [16]). For the same molecule, the entries for the “Mor Modulation Response nH” value at α3L158CK183Cβ2 nAChR [5] (setting [16]) and at wild type α3β2 nAChR (ACh titration + 10 μM Mor) were 0.95 ± 0.16 and 1.37 ± 0.80, respectively. For the same molecule, the figures for the “Emax, activation by Mor alone” value on α3L158Cβ2 nAChR [1] (setting [15]), at α3G181Cβ2 nAChR [2] (setting [15]) and on α3L158CG181Cβ2 nAChR [4] (setting [15]) were 0.021 ± 0.002, 0.32 ± 0.05 and 0.074 ± 0.009, respectively. Further, the figures for the Mor potentiation entry on α3K183Cβ2 nAChR (ACh + 10 μM Mor vs ACh alone) and on α3L158CK183Cβ2 nAChR [5] (ACh + 10 μM Mor vs ACh alone) were “negligible Mor potentiation” and “effectively no potentiation”, respectively.

As for `CC(=O)OCC[N+](C)(C)C` [ACh, acetylcholine], the “ACh Response nH” value at α3L158Cβ2 nAChR [1] (ACh alone, Hill fit) was 0.80 ± 0.11 [6] ^b; at α3A179Cβ2 nAChR (ACh alone, Hill fit), 0.79 ± 0.08 [8]; at α3G181Cβ2 nAChR [2] (ACh alone, Hill fit), 1.10 ± 0.11 [5]; on α3K183Cβ2 nAChR (ACh alone, Hill fit), 2.43 ± 0.78 [9]; on α3L158CA179Cβ2 nAChR [3] (ACh alone, Hill fit), 1.19 ± 0.20 [7]; on α3L158CG181Cβ2 nAChR [4] (setting [17]) it was 0.93 ± 0.23 [5]. Besides, the “ACh Response nH” value at α3L158CK183Cβ2 nAChR [5] (setting [17]) is 1.11 ± 0.14 [6]; on wild type α3β2 nAChR (ACh alone, Hill fit) it was 0.75 ± 0.07.

On to `O=C(O)CCP(CCC(=O)O)CCC(=O)O` [TCEP, tris(2-carboxyethyl)phosphine], for which the results for the ITCEP/Icontrol on α3L158CA179Cβ2 nAChR [6] (ACh) and at α3L158CA179Cβ2 nAChR [6] (ACh + Mor) were 1.21 ± 0.04 and 1.24 ± 0.05, respectively.

Turning to `O[C@@H](CS)[C@@H](O)CS` [DTT], the IDTT/IH2O2 at α3L158Cβ2 nAChR [7] is 0.96 ± 0.17; on α3G181Cβ2 nAChR [8] it was 0.96 ± 0.06. Further, the “increase of ACh-evoked current” value on α3L158CG181Cβ2 nAChR [9] (40 μM DTT 5 min on naive oocytes, prior to H2O2, challenge 100 μM ACh) turned out to be 25%. The IDTT/Icontrol on α3L158CA179Cβ2 nAChR [6] (24 μM ACh) was 1.30 ± 0.08; at α3L158CA179Cβ2 nAChR [6] (24 μM ACh + 10 μM Mor), 1.26 ± 0.07; on α3L158CK183Cβ2 nAChR [10] (125 μM ACh), 1.10 ± 0.01; on α3L158CK183Cβ2 nAChR [10] (125 μM ACh + 10 μM Mor), 1.19 ± 0.03. For the same molecule, the “IDTT/Icontrol (ACh + Mor)” value at α3L158CA179Cβ2 nAChR [6] (setting [18]) came to 1.06 ± 0.06; at α3L158CK183Cβ2 nAChR [10] (DTT post-oxidation), 1.02 ± 0.02. Also, the entries for the “IDTT/Icontrol (ACh)” value at α3L158CA179Cβ2 nAChR [6] (setting [18]) and on α3L158CK183Cβ2 nAChR [10] (DTT post-oxidation) were 0.99 ± 0.04 and 0.97 ± 0.03, respectively.

On to `CN(C)c1cccc2c(S(=O)(=O)NCCSS(C)(=O)=O)cccc12` [MTS-dansyl, dansylamidoethyl methanesthiosulfonate], for which the “decrease of ACh/Mor-evoked currents by MTS” value at α3L158CG181Cβ2 nAChR [11] (after H2O2 + ACh + Mor oxidation, 5 μM ACh + 10 μM Mor) amounted to 8%; on α3L158CG181Cβ2 nAChR [11] (after standard oxidation then 200–300 sec wash, 5 μM ACh + 10 μM Mor), 14%. The “decrease of ACh current after MTS” value on α3L158CG181Cβ2 nAChR [11] (after H2O2 alone treatment, 5 μM ACh) is reported as 27%. In addition, the “decrease of ACh + Mor current after MTS” value on α3L158CG181Cβ2 nAChR [11] (after H2O2 alone treatment, 5 μM ACh + 10 μM Mor) was determined as 21%. For the same molecule, on α3L158CG181Cβ2 nAChR [11] (naive oocytes, 50 μM MTS-dansyl 2 min, 5 μM ACh), the “decrease of ACh-evoked current after MTS-dansyl” value was 33%. Besides, the “decrease of ACh/Mor-evoked current after MTS-dansyl” value on α3L158CG181Cβ2 nAChR [11] (naive oocytes, 50 μM MTS-dansyl 2 min, 5 μM ACh + 10 μM Mor) is 14%. Further, the “decrease of ACh currents after MTS-dansyl” value at α3L158Cβ2 nAChR [12] is on record as 44 ± 2%; at α3G181Cβ2 nAChR [13] it was 21 ± 4%.

In the case of `OO` [H2O2], the IH2O2/Icontrol is on record as 0.78 ± 0.08 on α3L158Cβ2 nAChR [7] and 0.94 ± 0.03 at α3G181Cβ2 nAChR [8]. Besides, on α3L158CG181Cβ2 nAChR [9] (4.4 mM H2O2 + 100 μM ACh + 10 μM Mor, 5 min, challenge 100 μM ACh), the “decrease of ACh-evoked current” value is given as 26%. The “decrease of ACh + Mor-evoked current” value on α3L158CG181Cβ2 nAChR [9] (4.4 mM H2O2 + 100 μM ACh + 10 μM Mor, 5 min, challenge 100 μM ACh + 10 μM Mor) is recorded as 26%. In addition, on α3L158CG181Cβ2 nAChR [9] (4.4 mM H2O2 alone, 5 min, challenge 100 μM ACh), the “effect on ACh-evoked currents” value is “no apparent effect”. The “decrease of currents evoked by ACh and Mor” value at α3L158CG181Cβ2 nAChR [9] (4.4 mM H2O2 alone, 5 min, challenge 100 μM ACh + 10 μM Mor) stood at 24%. The “decrease of ACh-evoked current relative to post-reduction value” at α3L158CG181Cβ2 nAChR [9] (H2O2 + ACh + Mor oxidation after DTT, challenge 100 μM ACh) is listed as 52%. For the same molecule, the “decrease of ACh/Mor-evoked current relative to post-reduction value” on α3L158CG181Cβ2 nAChR [9] (H2O2 + ACh + Mor oxidation after DTT, challenge 100 μM ACh + 10 μM Mor) amounted to 46%. For the same molecule, the Ipost-oxidation/Icontrol at α3L158CG181Cβ2 nAChR [9] (H2O2 + ACh + Mor treatment, 5 μM ACh currents (MTS probing experiments)) is given as 0.66 ± 0.05. Besides, the “ACh/Mor-evoked current, % of the control” value is “about 60%” on α3L158CG181Cβ2 nAChR [9] (challenges every 100 sec, first response) and ≤ 80% at α3L158CG181Cβ2 nAChR [9] (five successive challenges in 500 sec). At α3L158CA179Cβ2 nAChR [6] (two oxidation conditions (H2O2 alone; H2O2 + ACh + Mor), two challenges (24 μM ACh; 24 μM ACh + 10 μM Mor)), the “decrease of evoked currents” value was 25–28%. The “decrease of ACh-evoked currents” value came out at 28% at α3L158CK183Cβ2 nAChR [10] (H2O2 + ACh + Mor treatment) and 13% on α3L158CK183Cβ2 nAChR [10] (H2O2 alone treatment).

The values above are taken from paper PMC3970552 (Neuropharmacology, 2013).
